Results: patent publication US5916924A, “Remedies for liver diseases” (Meiji Milk Products Co., Ltd., priority 1997, dated 1999)
Where a name gives a salt, the structure may show the parent alone. Read-outs that look alike come from different tables or passages of the source.

Assays:
mice (ICR, female) = assay: Acute Toxicity Test; type: in vivo; conditions: intraperitoneal
Experimental: The pH was adjusted to 7.0 by use of 5N NaOH. Solutions having lower concentrations were prepared by dilution with physiological saline. Each solution (10 μl) was intraperitoneally injected to mice (ICR, female, 6-weeks old, 29 g), and the survival ratio was obtained.

[1] = tested on: rat hepatocyte system in primary culture
Experimental: In separation and identification of the low molecular weight factor showing hepatocyte proliferation promoting activity derived from epithelial mucosa of the bovine small intestine, the rat hepatocyte system in primary culture was used. To this culture system, a fraction of a crude extract of bovine small intestine epithelial mucosa in the course of purification was added in the presence of high molecular weight factor extract (1%) and insulin (10 μg/ml) or in the presence of EGF (20 ng/ml) and insulin (10 μg/ml), to thereby establish an assay system for measuring the uptake of ^3 H-TdR into DNA of rat hepatocyte nuclei.
Fractions each amounting 15 ml was added to the above-mentioned assay system and the uptake of ^3 H-TdR was measured.

[2] = tested on: liver disorder induced by carbon tetrachloride; assay: GOT and GPT tests in mice with liver disorder induced by carbon tetrachloride; type: in vivo, ddY mice
Experimental: Carbon tetrachloride (5 ml, Wako Pure Chemicals) was put in a glass vial, and Panasate 800 (45 ml, Nippon Yushi Chemicals Co, Ltd.) was added to prepare a 10% (v/v) solution.
Subsequently,the total amount was made to 50 ml. An aliquot of 2 ml was diluted in 38 ml of physiological saline.
One group consisted of 10 mice. For 24 hours prior to the administration of tetrachloride, each mouse was fasted by being fed water only. 10% carbon tetrachloride/Panasate solution was intraperitoneally administered to each mice at a dose of 1 ml/kg.
Blood was collected from the abdominal aorta by use of 1-ml disposable syringes (Terumo). The blood, dispensed into 1.5 ml Eppendorf tubes, was subjected to centrifugal separation at 5,000 rpm for 10 minutes to thereby obtain serum. The activity of transaminase (GOT, GPT) in the serum thus obtained was measured. The measurement was performed by use of a Cobas Mira System (Baxter).

[3] = intraperitoneal, 2.8 mg/kg, 2 times

| SMILES | Survival (mice (ICR, female); 0.5 g/kg (as EA), 1 day after admin.) | Survival (mice (ICR, female); 0.5 g/kg (as EA), 6 days after admin.) | Survival (mice (ICR, female); 0.5 g/kg (as EA), day of administration) | Survival (mice (ICR, female); 1.25 g/kg (as EA), 1 day after admin.) | Survival (mice (ICR, female); 1.25 g/kg (as EA), 6 days after admin.) | Survival (mice (ICR, female); 1.25 g/kg (as EA), day of administration) | time to death after administration (mice (ICR, female); 2.5 g/kg) [min] | Survival (mice (ICR, female); 2.5 g/kg (as EA), day of administration) | time to death after administration (mice (ICR, female); 5.0 g/kg) [min] | Survival (mice (ICR, female); 5.0 g/kg (as EA), day of administration) | Survival (mice (ICR, female); doses equal to or less than 1.25 g/kg, six days) | 3H-TdR uptake activity ([1]; in the presence of EGF) | 3H-TdR uptake activity ([1]; in the presence of the high molecular weight factor extract) | area of necrosis in histopathological profile of the liver ([2]; 2.8 mg/kg i.p. and 16 mg/kg p.o.) | serum GOT level [2, 3] | serum GPT level [2, 3] | serum GOT level ([2]; peroral, 16 mg/kg, once) | serum GPT level ([2]; peroral, 16 mg/kg, once) |
| --- | --- | --- | --- | --- | --- | --- | --- | --- | --- | --- | --- | --- | --- | --- | --- | --- | --- | --- |
| NCCO [EA-HC1, monoethanolamine-HCl] | 4/4 | 4/4 | 4/4 | 3/3 | 3/3 | 3/3 | ≤ 30 | 0/4 | ≤ 30 | 0/4 | alive when six days had passed | – | – | – | – | – | – | – |
| NCCO [ethanolamine, monoethanolamine] | – | – | – | – | – | – | – | – | – | – | – | synergistic growth-stimulating effects | synergistic growth-stimulating effects | tendency that the area of necrosis was reduced | significantly decreased | significantly decreased | significantly decreased | significantly decreased |
